In US20040247604A1, “Anti-inflamatory fatty alcohols and fatty acid esters useful as antigen carriers” (priority 2001, published 2004):
Values joined by “and” are separate entries in the source; they are usually repeats but may differ in a detail not shown here. Equal entries are not always repeated.

Test system: adjuvant arthritis
Assay: Protection against adjuvant arthritis (AA): inhibition of joint inflammation
Format: in vivo, Lewis rats
Conditions: for % Inhibition of inflammation of adjuvant arthritis: 100 μl, subcutaneously once (14 days before or day 12 after induction of AA), day of maximal inflammation; for inflammation suppressed on day of peak disease: day 26

Row | Molecule | % Inhibition of inflammation of adjuvant arthritis (Lewis rats) | also measured
1 | CCCCCCCCCCCCCCCCO [Cetyl alcohol] | 66% | –
2 | CCCCCCCC/C=C\CCCCCCCC(=O)OCC(O)CO (stereo not shown) [Glycerol mono-oleate] | 98% | –
3 | CCC=CCC=CC/C=C\CCCCCCCCO [Linolenyl alcohol, cis-9,12,15-octadecatrienol] | 75% | –
4 | CCCCCCCC/C=C\CCCCCCCC(=O)OCC [Ethyl oleate] | 92% | –
5 | CCCCCCCC/C=C\CCCCCCCCO [Oleyl alcohol, cis-9-octadecenol] | 78%-96% | inflammation suppressed on day of peak disease (10 μl SC once 14 days before induction of AA): 14%; inflammation suppressed on day of peak disease (50 μl SC once 14 days before induction of AA): 61%; inflammation suppressed on day of peak disease (100 μl SC once 14 days before induction of AA): 78%; inflammation suppressed on day of peak disease (500 μl SC once 14 days before induction of AA): 90%; suppression of the inflammation (500 μl oleyl alcohol, two further experiments, Lewis rats): 96% and 91%
6 | Mannose monooleate | 95% | –
7 | CCCCCCCC/C=C\CCCCCCCC(=O)O [oleic acid, cis-9-octadecenoic acid, reference compound] | no effect | –
8 | CCCCCCCC/C=C\CCCCCCCC(=O)OC [Methyl oleate] | 76% | –
